Measured values reported in ChEMBL document CHEMBL1141452, “Advances in development of dopaminergic aporphinoids” (J Med Chem, 2007).

Legend:
[1] = target: D(1A) dopamine receptor (Rattus norvegicus, UniProt P18901); assay: Displacement of [3H]SCH-23390 from rat dopamine D1 receptor
[2] = target: D(2) dopamine receptor (Rattus norvegicus, UniProt P61169); assay: Displacement of [3H]raclopride from rat dopamine D2 receptor
[3] = target: T1, 5-hydroxytryptamine receptor 1A (Rattus norvegicus, UniProt P19327); assay: Displacement of [3H]8-OH-DPAT from rat 5HT1A receptor
T1 sequence (P19327 whole entry): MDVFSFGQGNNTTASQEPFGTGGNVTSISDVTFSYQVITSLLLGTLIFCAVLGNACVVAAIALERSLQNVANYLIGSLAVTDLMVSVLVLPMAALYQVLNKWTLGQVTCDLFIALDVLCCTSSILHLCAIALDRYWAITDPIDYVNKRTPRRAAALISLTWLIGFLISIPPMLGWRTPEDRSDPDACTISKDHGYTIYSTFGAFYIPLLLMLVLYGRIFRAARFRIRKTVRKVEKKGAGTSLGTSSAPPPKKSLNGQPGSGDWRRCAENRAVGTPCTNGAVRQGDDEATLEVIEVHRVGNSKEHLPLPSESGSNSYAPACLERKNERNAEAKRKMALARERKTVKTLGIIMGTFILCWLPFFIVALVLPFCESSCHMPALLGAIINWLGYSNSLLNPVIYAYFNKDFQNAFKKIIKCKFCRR

[4] = target: 5-hydroxytryptamine receptor 7 (Rattus norvegicus) (UniProt P32305); assay: Displacement of [3H]5-HT from rat 5-HT7 receptor
5-hydroxytryptamine receptor 7 (Rattus norvegicus), sequence (P32305 whole entry, looked up): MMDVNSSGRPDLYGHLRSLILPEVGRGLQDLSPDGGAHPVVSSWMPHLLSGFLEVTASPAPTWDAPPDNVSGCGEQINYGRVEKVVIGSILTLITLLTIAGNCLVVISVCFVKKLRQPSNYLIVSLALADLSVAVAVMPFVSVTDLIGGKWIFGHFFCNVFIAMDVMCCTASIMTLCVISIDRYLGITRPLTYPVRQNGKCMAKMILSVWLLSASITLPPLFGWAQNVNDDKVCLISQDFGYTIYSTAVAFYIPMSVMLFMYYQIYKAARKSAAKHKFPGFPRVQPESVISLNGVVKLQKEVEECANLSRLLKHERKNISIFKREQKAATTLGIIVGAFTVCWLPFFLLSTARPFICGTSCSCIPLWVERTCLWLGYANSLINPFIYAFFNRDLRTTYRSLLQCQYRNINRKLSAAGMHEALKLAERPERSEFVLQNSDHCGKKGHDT

D(1A) dopamine receptor, sequence (P18901 whole entry): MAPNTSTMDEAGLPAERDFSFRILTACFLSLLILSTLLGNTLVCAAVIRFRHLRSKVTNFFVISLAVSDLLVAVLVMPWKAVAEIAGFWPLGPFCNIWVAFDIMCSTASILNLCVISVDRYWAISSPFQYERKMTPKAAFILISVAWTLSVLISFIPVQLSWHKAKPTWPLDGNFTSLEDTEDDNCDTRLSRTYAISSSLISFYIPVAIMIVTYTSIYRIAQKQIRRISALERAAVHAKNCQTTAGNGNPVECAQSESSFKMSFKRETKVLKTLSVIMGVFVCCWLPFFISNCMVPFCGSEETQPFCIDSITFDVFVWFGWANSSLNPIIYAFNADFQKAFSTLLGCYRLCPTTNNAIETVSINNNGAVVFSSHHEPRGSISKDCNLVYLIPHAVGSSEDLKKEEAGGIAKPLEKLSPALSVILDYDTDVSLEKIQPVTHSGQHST
D(2) dopamine receptor, sequence (P61169 whole entry): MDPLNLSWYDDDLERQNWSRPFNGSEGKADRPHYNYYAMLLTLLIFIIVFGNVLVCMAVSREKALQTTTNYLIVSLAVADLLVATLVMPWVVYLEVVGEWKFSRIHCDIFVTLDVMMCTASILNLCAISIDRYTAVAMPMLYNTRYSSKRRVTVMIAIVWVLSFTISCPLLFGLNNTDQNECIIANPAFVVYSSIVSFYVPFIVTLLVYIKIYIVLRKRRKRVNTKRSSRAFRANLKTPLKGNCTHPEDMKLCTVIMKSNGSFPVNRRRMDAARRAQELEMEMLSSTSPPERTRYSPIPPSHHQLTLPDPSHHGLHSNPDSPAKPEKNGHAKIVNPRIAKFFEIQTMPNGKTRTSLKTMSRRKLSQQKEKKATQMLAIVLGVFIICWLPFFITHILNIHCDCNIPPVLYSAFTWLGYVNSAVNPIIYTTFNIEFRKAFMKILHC

SMILES	Ki [1] [µM]	Ki [2] [nM]	other results
Cc1ccc2c(c1O)-c1cccc3c1[C@@H](C2)NCC3	> 20	> 10000	
CCc1cccc2c1-c1cccc3c1[C@@H](C2)N(C)CC3		79	
CCCN1CCc2cccc3c2[C@H]1Cc1ccc(C)c(O)c1-3	2	250	
CN1CCc2ccc3c(=O)oc4cccc5c4c3c2[C@H]1C5		270	Ki [3]: 2000 nM; Ki [4]: 1500 nM
CN1CCc2ccc3oc(=O)c4cccc5c4c3c2[C@H]1C5		540	Ki [3]: 1150 nM; Ki [4]: 280 nM
CCN1CCc2cccc3c2C1Cc1cc(O)ccc1O3 (stereo unspecified)		> 10000	
CCCN1CCc2cc(O)cc3c2C1Cc1ccccc1O3 (stereo unspecified)	> 10	> 10000	
CN1CCc2cc(O)cc3c2C1Cc1ccccc1O3 (stereo unspecified)	3	270	
CN1CCc2ccc3c(=O)[nH]c4cccc5c4c3c2[C@H]1C5		6100	Ki [3]: 370 nM; Ki [4]: 340 nM
CCN1CCc2cc(O)cc3c2C1Cc1ccccc1C3 (stereo unspecified)	> 20	15000	
Oc1cc2c3c(c1)Cc1ccccc1CC3NCC2 (stereo unspecified)	3.7	20000	
CCN1CCc2cc(OC)cc3c2C1Cc1ccccc1C3 (stereo unspecified)	6.6	9700	
CCCN1CCc2cc(OC)cc3c2C1Cc1ccccc1C3 (stereo unspecified)	11.6	14000	
CN1CCc2cc(O)c(O)c3c2C1Cc1ccccc1C3 (stereo unspecified)	6.1	15000	
CCN1CCc2cc(O)c(O)c3c2C1Cc1ccccc1C3 (stereo unspecified)	8.3	16000	
Oc1cc2c3c(c1O)Cc1ccccc1CC3NCC2 (stereo unspecified)	10.8	8000	
COc1cc2c3c(c1OC)Cc1ccccc1CC3N(Cc1ccccc1)CC2 (stereo unspecified)	> 60	4900	
COc1cc2c3c(c1OC)Cc1ccccc1CC3NCC2 (stereo unspecified)	4.3	13000	
CCCN1CCc2cccc3c2[C@H]1Cc1cccc(OC(C)=O)c1-3	> 10		
COc1cc2c(cc1O)C[C@H]1c3c(c(I)c(O)c(OC)c3-2)CCN1C	0.002	68	
CCCCCCCCCCCCCCCCCCCCCC(=O)Oc1cccc2c1-c1cccc3c1[C@@H](C2)N(CCC)CC3	> 10	180	
CCCN1CCc2cc(SC)cc3c2[C@H]1Cc1ccc(O)c(O)c1-3		3.7	

SMILES	Ki [1] [µM]	Ki [2] [nM]	other results
CCCN1CCc2cc(F)cc3c2[C@H]1Cc1cccc(OC=O)c1-3	0.8	39	
CN1CCc2ccc3c4c2[C@H]1Cc1cccc(c1-4)[C@H]3O		24	Ki [4]: 14 nM
C[C@H]1c2cccc3c2-c2c1ccc1c2[C@@H](C3)N(C)CC1		39	Ki [3]: 31 nM; Ki [4]: 6 nM
CC(=O)N[C@H]1c2cccc3c2-c2c1ccc1c2[C@@H](C3)N(C)CC1		8000	Ki [3]: 720 nM; Ki [4]: 1320 nM
CN1CCc2ccc3c4c2[C@H]1Cc1cccc(c1-4)[C@@H]3N			Ki [3]: 360 nM; Ki [4]: 18 nM
CN1CCc2ccc3c4c2[C@H]1Cc1cccc(c1-4)[C@H]3N		260	Ki [3]: 140 nM; Ki [4]: 13 nM
CO[C@@]1(C)c2cccc3c2-c2c1ccc1c2[C@@H](C3)N(C)CC1		71	Ki [3]: 17 nM; Ki [4]: 1.1 nM
CO[C@]1(C)c2cccc3c2-c2c1ccc1c2[C@@H](C3)N(C)CC1		7	Ki [3]: 17 nM; Ki [4]: 1.1 nM
CC(=O)N[C@@H]1c2cccc3c2-c2c1ccc1c2[C@@H](C3)N(C)CC1		3600	Ki [3]: 200 nM; Ki [4]: 540 nM
C[C@@H]1c2cccc3c2-c2c1ccc1c2[C@@H](C3)N(C)CC1		19	Ki [3]: 5.1 nM; Ki [4]: 3.3 nM
CN1CCc2ccc3c4c2[C@H]1Cc1cccc(c1-4)[C@@H]3O		210	Ki [4]: 100 nM
CCCN1CCc2cc(O)cc3c2[C@H]1Cc1ccc(O)c(O)c1-3			IC50 [2]: 7e-05 µM
Oc1cccc2c1-c1cccc3c1[C@@H](C2)NCC3		1000	
CCCN1CCc2cccc3c2C1Cc1cc(O)ccc1O3 (stereo unspecified)	> 10	> 10000	
COc1cc2c(cc1OC)-c1c(OC)c(OC)c(I)c3c1[C@H](C2)N(C)CC3	2.11	4500	
COc1cc2c(cc1OC)-c1c(OC)c(O)c(Br)c3c1[C@H](C2)N(C)CC3	0.015	610	
COc1cc2c(cc1OC)-c1c(OC)c(O)c(I)c3c1[C@H](C2)N(C)CC3	0.006	830	
CCCN1CCc2cc(O)cc3c2C1Cc1ccccc1C3 (stereo unspecified)	30	40000	
COc1cc2c3c(c1)Cc1ccccc1CC3N(C)CC2 (stereo unspecified)	8.6	8200	
COc1cc2c3c(c1)Cc1ccccc1CC3NCC2 (stereo unspecified)	6.3	19000	
COc1cc2c(cc1OC)-c1c(OC)c(OC)c(Br)c3c1[C@H](C2)N(C)CC3	0.52	2400	
CCCCC(=O)Oc1cccc2c1-c1cccc3c1[C@@H](C2)N(CCC)CC3	> 20	34	

SMILES	Ki [1] [µM]	Ki [2] [nM]	other results
CCCN1CCc2cc(O)c(O)c3c2C1Cc1ccccc1C3 (stereo unspecified)	22.3	6700	
CN1CCc2cc(-c3ccc(O)cc3)cc3c2[C@H]1Cc1cccc(O)c1-3	0.17	3.8	
COc1cc2c3c(c1OC)Cc1ccccc1CC3N(C)CC2 (stereo unspecified)	7.2	> 20000	
CCCN1CCc2cc(OC)c(OC)c3c2C1Cc1ccccc1C3 (stereo unspecified)	> 70	14000	
CN1CCc2cc(O)cc3c2C1Cc1ccccc1C3 (stereo unspecified)	6.4	8900	
CN1CCc2ccc3c4c2[C@H]1Cc1cccc(c1-4)[C@]3(C)O		26	Ki [4]: 4.3 nM
CCCN1CCc2cc(OC)cc3c2[C@H]1Cc1ccc(O)c(O)c1-3			IC50 [2]: 0.0102 µM
Cc1ccc2c(c1O)-c1cccc3c1[C@@H](C2)N(C)CC3		1070	
Cc1cccc(C#N)c1-c1cccc2c1-c1cccc3c1[C@@H](C2)N(C)CC3 (stereo in doubt; 58)			Ki [4]: 3.8 nM
COc1cc2c(cc1O)C[C@H]1c3c(c(Br)c(O)c(OC)c3-2)CCN1C [3-BROMOBOLDINE]	0.049	740	
Oc1ccc2c(c1)C[C@H]1NCCc3cc4c(c-2c31)OCO4 [ANOLOBINE]			IC50 [1]: 36 µM; IC50 [2]: 15 µM
c1ccc2c(c1)C[C@H]1NCCc3cc4c(c-2c31)OCO4 [ANONAINE]			IC50 [1]: 68 µM; IC50 [2]: 19 µM
COc1cc2c(cc1O)C[C@H]1c3c(ccc(O)c3O2)CCN1C [BREOGANINE]			IC50 [1]: 0.1 µM; IC50 [2]: 0.2 µM
COc1cc2c(cc1O)Oc1c(O)ccc3c1[C@H](C2)N(C)CC3 [CELTISINE]			IC50 [1]: 0.06 µM; IC50 [2]: 0.03 µM
COc1cc2c(cc1OC)Oc1c(O)ccc3c1[C@H](C2)N(C)CC3 [CULARIDINE]			IC50 [1]: 0.8 µM; IC50 [2]: 0.3 µM
COc1c(O)c2c3c(c1OC)CCN[C@@H]3Cc1ccccc1-2 [ISOPILINE]			IC50 [1]: 9.8 µM; IC50 [2]: 30 µM
O=C1c2ccccc2-c2c3c(cc4ccnc1c24)OCO3 [LIRIODENINE]			IC50 [1]: 75 µM; IC50 [2]: 59 µM
COc1cc2c(cc1O)C[C@@H]1NCCc3cc(O)c(OC)c-2c31 [NORBOLDINE]			IC50 [1]: 2.5 µM; IC50 [2]: 6.8 µM
COc1c2c3c(c4c1OCO4)-c1ccccc1C[C@H]3NCC2 [NORSTEPHALAGINE]			IC50 [1]: 4.8 µM; IC50 [2]: 27 µM
COc1cc2c(cc1OC)-c1c(OC)c(O)cc3c1[C@H](C2)N(C)CC3 [PREDICENTRINE]	0.24	760	
COc1ccc2c(c1O)Oc1c(OC)ccc3c1[C@H](C2)N(C)CC3 [SARCOCAPNIDINE]			IC50 [1]: 50 µM; IC50 [2]: 2 µM
